Reference: US20100204134A1, “USE OF THE PEPTIDE HIS-SER-LEU-GLY-LYS-TRP-LEU-GLY-HIS-PRO-ASP-LYS-PHE ALONE OR IN COMBINATION WITH THE PEPTIDE GLY-ARD-GLY-ASP-ASN-PRO-OH AS A THERAPEUTIC AGENT” (priority 2007, published 2010)
No end group written: not given here.

What was measured:
[1] = test system: HIV-1IIIB; test: HIV-1 antiviral assay in CEM-SS cells; format: cell-based
[2] = test system: HCMV strain AD169; test: HCMV plaque formation assay; conditions: MRC-5 cells; for inhibition of HCMV plaque formation as compared to the virus control: 10 micrograms per ml, 7-10 days
[3] = test system: Streptococcus pneumoniae; test: Streptococcus pneumoniae assay; conditions: 10 micrograms per ml; 5×10^5 CFU/mL
[4] = test system: hepatitis B virus (HBV) ayw strain; test: HBV experimental assay system (secreted HBV DNA, TaqMan PCR); format: cell-based; conditions: 10 micrograms per ml; HepG2-2.2.15; six days; HBV DNA in supernatant
[5] = test system: HUVEC; test: Endothelial tube formation assay; conditions: 10 micrograms per ml; 20 hours
Protocol: The endothelial tube formation assay is based on the ability of endothelial cells to form three-dimensional capillary-like tubular structures when cultured on a gel of basement membrane extract. […] Pre-labeled HUVEC with Calcein AM were seeded in a 96-well culture plate coated with extracellular metrix (Chemicon international Cat. ECM625) and treated with test peptides—10 micrograms per ml—in full growth medium. Positive control was vehicle only. The endothelial cells were allowed to form tubes for 20 hours and were then examined under an inverted fluorescent microscope. Duplicate wells for each treatment were photographed and quantitatively analyzed for an average tubule length using image analysis software ImageProPlus. Raw data were expressed as average tubule lengths in pixels ±standard deviation. Statistic p values were computed using the Student's t-test.

[6] = test system: murine spleen cells; test: Th1/Th2 cytokine profiling assay; conditions: 10 micrograms per ml; Ovalbumin restimulation; 72 hours
Description: The Balb/c mice (originated in 1923, it is a popular strain and is used in many different research disciplines. Also classified as an inbred from the production of 20 or more successive brother-sister matings, the Balb/c mouse is albino and small in size) were immunized on Days 1, 15, and 29 with Ovalbumin (Ovalbumin is the main protein found in egg white, commonly used to stimulate an immunological reaction in test animals) in PBS (5 micrograms/injection). On day 50, spleens of the mice were harvested (3 weeks after last boost with Ovalbumin). […] Thereafter, additional Ovalbumin was added to the cells at 10 micrograms/ml for in vitro restimulation of the cells. 72 hours later, cell supernatants were harvested and assayed using the Becton Dickinson Mouse Th1/Th2 Cytokine CBA Kit. This kit can be used to measure Interleukin-2 (IL-2), Interleukin-4 (IL-4), Interleukin-5 (IL-5), Interferon-γ (IFN-γ), and Tumor Necrosis Factor-α (TNF-α) protein levels in a single sample.

[7] = test system: Primary Human endothelial cells (HUVEC); test: Endothelial cell migration assay; format: cell-based; conditions: 10 micrograms per ml; 22 hours
Protocol: Primary Human endothelial cells (HUVEC) were seeded in insert chambers with 3 micrometer pore size of multi-transwell plate for 6 hours at 37° C. in Endothelial Cell Basal Medium (EBM) supplemented with 0.1% bovine serum albumin. Thereafter, designated concentration of test peptides—10 micrograms per ml—was added in duplicate wells. The endothelia were allowed to migrate for 22 hours at 37° C., then, migrated cells were fixed and stained with Hoechst 33342 dye. Images of 3 fields per insert were taken and the number of migrated cells per field were quantified using the ImageProPlus software. Data were analyzed for the average number of the migrated cells and standard deviation of six data points for each treatment condition. […] Statistic p values were computed using the Student's t-test.

Row | Molecule | antiviral activity of positive control compounds [1] | inhibition of HCMV plaque formation as compared to the virus control [2] | inhibition of the growth of Streptococcus pneumoniae [3] [%] | change of the production of IFN-γ [6] | change of the production of IL-5 [6] | induction of the production of IL-2 [6] [%] | induction of the production of IL-4 [6] [%] | induction of the production of TNF-alpha [6] [%] | also measured
1 | Cc1cn([C@H]2C[C@H](N=[N+]=[N-])[C@@H](CO)O2)c(=O)[nH]c1=O [AZT] | expected levels of antiviral activity |  |  |  |  |  |  |  | 
2 | Nc1nc(O)c2ncn(COC(CO)CO)c2n1 [Ganciclovir, reference compound] |  |  |  |  |  |  |  |  | antiviral activity of positive control compound ([2]; positive control, HCMV): expected levels of antiviral activity
3 | CC(C)(C)NC(=O)[C@@H]1CN(Cc2cccnc2)CCN1C[C@@H](O)C[C@@H](Cc1ccccc1)C(=O)N[C@H]1c2ccccc2C[C@H]1O [indinavir] | expected levels of antiviral activity |  |  |  |  |  |  |  | 
4 | Gly-Arg-Gly-Asp-Asn-Pro-OH (GRGDNP-OH) [Peptide 2] |  | did not inhibit | 100 | did not significantly change | did not significantly change | 58.8 | 55.6 | 23.7 | inhibition of HBV replication as compared to the virus control infection [4]: 36.4%; increase of the tube formation of endothelial cells [5]: 6%
5 | His-Ser-Leu-Gly-Lys-Trp-Leu-Gly-His-Pro-Asp-Lys-Phe (HSLGKWLGHPDKF; printed: His-Ser-Leu-Gly-Lys-Trp-Leu-Gly-His-Pro-Asp-Lys-Phe) [Peptide 1] |  | did not inhibit | 100 | did not significantly change | did not significantly change | 106.5 | 117.8 | 21.2 | inhibition of the tube formation of human endothelial cells [5]: 10%; inhibition of the migration of human endothelial cells [7]: 12%
